From paper PMC5512161 (Neuropharmacology, 2017)

Legend:
Test in all cases: whole-cell patch clamp
Assay type in all cases: cell-based
[1] = tested on: α3β2γ2 GABAA receptor; details: inhibition of current by EC30 GABA; -60 mV, pH 7.3, 22-25 °C; called competitive
[2] = tested on: α1β2 GABAA receptor; details: EC30 GABA, TM2 6' position, -60 mV, pH 7.3
[3] = tested on: α1β2 GABAA receptor; details: EC30 GABA (0.5 μM), -60 mV, pH 7.3
[4] = tested on: α6β2γ2 GABAA receptor; details: EC30 GABA (1 μM), -60 mV, pH 7.3, biphasic effect

In the case of O=C1Nc2ccc(Cl)cc2[C@@](C#CC2CC2)(C(F)(F)F)O1 [Efavirenz], the IC50 [1] is reported as 14 ± 6.3 µM, the “% of control end-application current at 30 μM” value [2] is reported as 95 ± 18% and the “% of control end-application current at 30 μM” value [3] is reported as 1.6 ± 1.7%. The “% of control end-application current at 30 μM” value [4] was 46 ± 6.1%.
